“Also recorded” adds a separate entry of the source. Like-named read-outs stand apart in the source and are kept apart here. Blank lines part the entries; values can stand above or below the molecule they belong to.
Tests used:
[1] = Mouse pharmacokinetic (PK) studies; type: in vivo; conditions: mice; for plasma exposure: single 20 mg/kg intraperitoneal injection, over 12 hours (FIG. 11), 20 mg/kg
Experimental: To investigate the pharmacokinetics of bi-functional compounds, exemplified by TR-123, a single 20 mg/kg intraperitoneal injection was evaluated. […] Additionally, doses of 2 mg/kg TR-198 via intravenous injection and 20 mg/kg TR-198 via oral gavage were evaluated in mice.
A single 20 mg/kg intraperitoneal injection of compound TR-123 was evaluated. Plasma concentrations of TR-123 reported at each of the 6 time points (30 min, 1 h, 2 h, 4 h, 8 h, and 12 h post compound administration) are the average values from 3 test animals.
A single 2 mg/kg intravenous injection and 20 mg/kg oral gavage of TR-198 were evaluated in mice.
Plasma concentrations of TR-198 reported at each of the 6 time points (5 min, 30 min, 2 h, 4 h, 8 h, and 12 h post compound administration via IV, 30 min, 1 h, 2 h, 4 h, 8 h, and 12 h post compound administration via p.o.) are the average values from 3 test animals.
Standard PK studies were conducted using male Swiss Albino mice by Sai Life Sciences. A single 20 mg/kg intraperitoneal (IP) injection of compound TR-123 was evaluated. Plasma concentrations of TR-123 reported at each of the 6 time points (30 min, 1 h, 2 h, 4 h, 8 h, and 12 h post dosing) are the average values from 3 test animals. Error bars represent+SD.

TPM3-TRKA fusion protein [2] = molecular target: T1, TPM3-TRKA fusion protein (Homo sapiens, UniProt P04629+P06753+Q96SW2); experiment: Immunoblotting of TPM3-TRKA fusion protein in KM12 cells; type: cell-based; parameters: The resulted chimeric proteins always retain the kinase domain of TRK proteins; TPM3 (N-terminal fusion partner, natural gene fusion); endogenous in cells; host or cells: KM12 colon cancer cells; conditions: for TRKA protein levels: dose range (FIG. 8A); for time after adding compound at which significant degradation of TPM3-TRKA was detected: 100 nM (FIG. 2); for TPM3-TRKA protein levels / TPM3-TRKA protein levels, time course: 100 nM; for TPM3-TRKA protein levels: 16 hours (FIG. 1A-1C); for TPM3-TRKA protein levels, time course: indicated incubation time (FIG. 2)
Experimental: Specific exemplary bivalent compounds were characterized in KM12 cells. […] Cells were collected, lysed and subject to immunoblotting using an antibody specific to TRK proteins. GAPDH was included as the loading control. DMSO was used as the negative control.
KM12 cells were treated with DMSO or indicated compounds at 100 nM for 16 hours.
KM12 cells were treated with CPD-027, CPD-053, and CPD-060 at 100 nM for indicated incubation time. […]
(§1) KM12 or HEL cells were treated with a dose range of compound TR-123 or TR-123-negative. The latter lost binding to cereblon (CRBN) due to a chemical modification.
KM12 or HEL cells were treated with a single dose of compound TR-123 or combination with MG-132, Bortezomib, MLN4924 or Pomalidomide. […]
(§2) Cultured cells were washed with cold PBS once and lysed in cold RIPA buffer supplemented with protease inhibitors and phosphatase inhibitors (Beyotime Biotechnology). The solutions were then incubated at 4° C. for 30 minutes with gentle agitation to fully lyse cells. For tumor tissues, tumors were cut into small pieces, milled with cold RIPA buffer using a mechanical homogenizer and lysed for 1 hour at 4° C. Cell lysates were centrifuged at 13,000 rpm for 10 minutes at 4° C. and pellets were discarded. Total protein concentrations in the lysates were determined by BCA assays (Beyotime Biotechnology). Cell lysates were mixed with Laemmli loading buffer to 1× and heated at 99° C. for 5 min. Proteins were resolved on SDS-PAGE and visualized by chemiluminescence. Images were taken by a ChemiDoc MP Imaging system (Bio-Rad). Protein bands were quantitated using the software provided by Bio-Rad.

KM12 cells = experiment: Cell viability assay (CellTiter-Glo) in KM12 cells; type: cell-based; conditions: Homo sapiens, 72 h, KM12 cell viability, CellTiter-Glo, 3 days, read-out: IC50
TPM3-TRKA fusion protein [3] = molecular target: T1, TPM3-TRKA fusion protein; experiment: Immunoblotting of TPM3-TRKA in KM12 subcutaneous xenograft tumors; type: in vivo, Athymic nude mice; parameters: The resulted chimeric proteins always retain the kinase domain of TRK proteins; TPM3 (N-terminal fusion partner, natural gene fusion); from tissue; host or cells: KM12 subcutaneous xenograft tumors in athymic nude mice; conditions: for TPM3-TRKA protein levels in KM12 subcutaneous xenograft tumors: 10, 20, or 50 mg/kg intraperitoneally, single dose, four hours after administration (FIG. 3)
Experimental: In addition to cultured cells, athymic nude mice bearing KM12 subcutaneous xenograft tumors at the right flank were intraperitoneally treated with 10, 20, or 50 mg/kg CPD-053, CPD-027, or CPD-060. Four hours after drug administration, animals were sacrificed for immunoblotting of TPM3-TPKA in homogenized xenograft tumor masses. The label “a” or “b” represents two different samples of the same xenograft tumor.
Athymic nude mice bearing KM12 subcutaneous xenograft tumors at the right flank were intraperitoneally treated with 10, 20, or 50 mg/kg CPD-053, CPD-027, or CPD-060, as indicated in FIG. 3. Four hours after drug administration, animals were sacrificed for immunoblotting of TPM3-TPKA in homogenized xenograft tumor chunks. The label “a” or “b” represents two different chunks of the same xenograft tumor.
Athymic nude mice bearing KM12 subcutaneous xenograft tumors at the right flank were intraperitoneally or orally treated with bivalent compounds at indicated dose. Eight hours after drug administration, animals were sacrificed for immunoblotting of TPM3-TPKA in homogenized xenograft tumor samples.
as §2
(§3) All animal experiments were performed under protocols approved by the Institutional Animal Care and Use Committee (IACUC) of Cullgen. Athymic nude mice (male, 5-weeks old) received 5 million KM12 cells subcutaneously inoculated at the right flank site. Ten days following inoculation, tumors were approximately 500 mm3 in size. Tumor-bearing mice were treated intraperitoneally with vehicle or bivalent compounds at indicated doses. Tumor sizes and body weight of mice were measured every 2 days. In addition, immunoblotting assays were employed to assess the levels of TRKA fusion proteins in xenograft tumors around 500 mm^3 in size following drug administration. At indicated hours after drug administration, selected mice were sacrificed, tumors were resected. Small chunks of tumors were homogenized for immunoblotting of TPM3-TPKA and other proteins as indicated.

wild type TRKA protein = molecular target: T2, wild type TRKA protein (Homo sapiens, UniProt P04629); experiment: Immunoblotting of wild type TRKA protein in HEL cells; type: cell-based; conditions: for TRKA protein levels: dose range (FIG. 8B)
T2 construct: immunoblot of wild type TRKA protein expressed by HEL cells; endogenous in cells; host or cells: HEL cells
Experimental: as §1
KM12 or HEL cells were treated with a single dose of compound TR-123 or combination with MG-132, Bortezomib, MLN4924 or Pomalidomide.
as §2

[4] = system: KM12 subcutaneous xenograft tumors; experiment: KM12 subcutaneous xenograft tumor growth study; type: in vivo, Athymic nude mice
Experimental: (§4) Athymic nude mice bearing KM12 subcutaneous xenograft tumors at the right flank were intraperitoneally treated with vehicle or 25 mg/kg CPD-060 once per day (qd), twice per day (bid), or once every two days (q2d). Tumor volumes were assessed every two days and expressed as length×width×width/2. Body weights of experimental mice were also measured to assess the toxicity of compounds.
(§5) Athymic nude mice bearing KM12 subcutaneous xenograft tumors at the right flank were treated with vehicle, 10-20 mg/kg TR-181 or TR-198 once per day (qd), or twice per day (bid) via oral gavage. Tumor volumes were assessed every two days and expressed as length×width×width/2. Body weights of experimental mice were also measured to assess the toxicity of compounds.
as §3

[5] = Body weight of xenograft-bearing mice (toxicity); type: in vivo, Athymic nude mice
Experimental: as §4, §5, §3

TRK-fusions = conditions: cited from earlier work

T1 sequence (P06753+P04629 fused): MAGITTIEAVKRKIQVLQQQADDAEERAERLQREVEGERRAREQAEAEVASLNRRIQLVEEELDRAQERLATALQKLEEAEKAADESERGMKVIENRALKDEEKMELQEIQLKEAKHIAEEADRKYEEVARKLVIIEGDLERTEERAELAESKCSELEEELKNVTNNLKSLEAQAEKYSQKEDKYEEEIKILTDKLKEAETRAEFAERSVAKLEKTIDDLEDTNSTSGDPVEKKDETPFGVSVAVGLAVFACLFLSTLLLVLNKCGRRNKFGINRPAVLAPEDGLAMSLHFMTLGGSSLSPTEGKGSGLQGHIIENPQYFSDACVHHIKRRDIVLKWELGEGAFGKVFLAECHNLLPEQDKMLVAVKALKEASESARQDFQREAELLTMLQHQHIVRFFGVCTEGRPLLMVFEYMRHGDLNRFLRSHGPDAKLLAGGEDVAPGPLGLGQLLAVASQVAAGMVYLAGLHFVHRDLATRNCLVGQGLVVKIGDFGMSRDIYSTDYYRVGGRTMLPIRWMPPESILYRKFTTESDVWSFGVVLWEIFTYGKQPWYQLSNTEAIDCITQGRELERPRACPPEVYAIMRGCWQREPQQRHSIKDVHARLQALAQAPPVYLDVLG
T1 sequence (Q96SW2 whole entry, the tested form may be a part): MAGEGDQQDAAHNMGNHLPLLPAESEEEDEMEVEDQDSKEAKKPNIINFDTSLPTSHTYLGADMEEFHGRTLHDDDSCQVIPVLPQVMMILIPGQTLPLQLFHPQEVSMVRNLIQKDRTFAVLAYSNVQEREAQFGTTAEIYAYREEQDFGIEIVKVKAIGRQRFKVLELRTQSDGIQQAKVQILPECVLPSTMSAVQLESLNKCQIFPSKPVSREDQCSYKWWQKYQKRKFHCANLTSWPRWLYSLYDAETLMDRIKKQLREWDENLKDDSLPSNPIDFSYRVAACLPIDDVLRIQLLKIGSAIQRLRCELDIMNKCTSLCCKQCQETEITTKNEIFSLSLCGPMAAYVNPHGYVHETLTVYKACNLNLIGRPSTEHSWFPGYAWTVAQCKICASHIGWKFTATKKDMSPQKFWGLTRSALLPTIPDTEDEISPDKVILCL
T1 sequence (Q16531 whole entry partner, the tested form may be a part): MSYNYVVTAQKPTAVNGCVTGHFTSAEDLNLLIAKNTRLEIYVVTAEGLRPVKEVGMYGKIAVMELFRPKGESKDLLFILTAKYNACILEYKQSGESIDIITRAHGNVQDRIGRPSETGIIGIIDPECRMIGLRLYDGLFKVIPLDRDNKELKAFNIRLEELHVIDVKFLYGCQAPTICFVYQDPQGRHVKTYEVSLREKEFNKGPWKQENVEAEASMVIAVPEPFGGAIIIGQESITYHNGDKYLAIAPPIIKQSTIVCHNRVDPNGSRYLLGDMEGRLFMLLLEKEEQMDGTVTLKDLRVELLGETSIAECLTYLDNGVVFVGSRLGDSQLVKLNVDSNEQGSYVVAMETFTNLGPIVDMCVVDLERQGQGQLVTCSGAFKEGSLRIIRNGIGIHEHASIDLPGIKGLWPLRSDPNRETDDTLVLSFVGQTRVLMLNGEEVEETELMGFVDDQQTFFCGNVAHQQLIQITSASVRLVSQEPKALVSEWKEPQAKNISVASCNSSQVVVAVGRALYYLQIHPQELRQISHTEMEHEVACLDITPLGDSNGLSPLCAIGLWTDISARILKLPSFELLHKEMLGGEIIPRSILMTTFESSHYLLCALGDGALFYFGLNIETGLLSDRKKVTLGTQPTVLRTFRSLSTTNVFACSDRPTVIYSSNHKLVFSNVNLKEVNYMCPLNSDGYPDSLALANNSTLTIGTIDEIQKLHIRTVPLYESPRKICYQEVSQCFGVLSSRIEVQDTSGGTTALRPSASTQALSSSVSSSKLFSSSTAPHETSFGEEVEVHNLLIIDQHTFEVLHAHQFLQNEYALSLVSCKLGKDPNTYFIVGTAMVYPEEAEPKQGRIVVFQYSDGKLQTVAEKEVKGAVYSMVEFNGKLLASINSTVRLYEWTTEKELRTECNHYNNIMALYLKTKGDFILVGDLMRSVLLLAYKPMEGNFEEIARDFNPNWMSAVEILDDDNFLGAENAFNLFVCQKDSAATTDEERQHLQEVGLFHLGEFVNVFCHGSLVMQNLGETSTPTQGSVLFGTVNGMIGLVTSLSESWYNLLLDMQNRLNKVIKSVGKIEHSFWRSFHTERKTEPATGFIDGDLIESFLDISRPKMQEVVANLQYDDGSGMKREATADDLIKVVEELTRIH
T2 sequence (P04629 33-796): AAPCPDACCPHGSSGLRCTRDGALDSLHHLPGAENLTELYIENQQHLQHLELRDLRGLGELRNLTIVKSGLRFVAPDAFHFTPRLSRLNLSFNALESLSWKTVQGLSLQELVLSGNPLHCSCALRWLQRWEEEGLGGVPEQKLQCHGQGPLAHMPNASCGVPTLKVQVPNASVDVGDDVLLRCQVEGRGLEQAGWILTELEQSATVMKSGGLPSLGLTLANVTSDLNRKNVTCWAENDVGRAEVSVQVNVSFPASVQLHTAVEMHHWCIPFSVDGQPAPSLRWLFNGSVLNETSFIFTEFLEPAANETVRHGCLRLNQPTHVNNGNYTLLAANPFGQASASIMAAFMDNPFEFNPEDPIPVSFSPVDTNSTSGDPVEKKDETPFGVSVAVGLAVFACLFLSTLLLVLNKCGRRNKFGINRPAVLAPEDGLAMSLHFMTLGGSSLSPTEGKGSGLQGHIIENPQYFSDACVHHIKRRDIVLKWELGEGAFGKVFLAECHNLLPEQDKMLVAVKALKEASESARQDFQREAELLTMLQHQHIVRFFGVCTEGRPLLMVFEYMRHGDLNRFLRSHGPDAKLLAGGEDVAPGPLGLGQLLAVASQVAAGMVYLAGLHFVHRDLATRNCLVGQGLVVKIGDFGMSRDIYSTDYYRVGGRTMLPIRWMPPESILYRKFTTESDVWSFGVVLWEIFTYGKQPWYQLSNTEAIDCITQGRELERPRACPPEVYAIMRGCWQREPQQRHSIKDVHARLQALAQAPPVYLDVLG

plasma exposure [1]: significant plasma exposure
TRKA degradation in combination with MG-132, Bortezomib or MLN4924 (TPM3-TRKA fusion protein [2]; single dose (FIG. 9A)): compromised
TRKA degradation in combination with MG-132, Bortezomib, MLN4924 or Pomalidomide (wild type TRKA protein; single dose (FIG. 9B)): compromised
SMILES: O=C1CCC(N2C(=O)c3ccc(NCC(=O)N4CCN(c5cccc(-c6cnc7ccc(N8CCC[C@@H]8c8cccc(F)c8)nn67)n5)CC4)cc3C2=O)C(=O)N1 (stereo partly drawn) [TR-123, 2-(2,6-dioxopiperidin-3-yl)-5-((2-(4-(6-(6-((R)-2-(3-fluorophenyl)pyrrolidin-1-yl)imidazo[1,2-b]pyridazin-3-yl)pyridin-2-yl)piperazin-1-yl)-2-oxoethyl)amino)isoindoline-1,3-dione]
TRKA protein levels (TPM3-TRKA fusion protein [2]): reduced TRKA protein levels in a concentration-dependent manner
IC50 (KM12 cells; Table 3): 1.7 nM
TPM3-TRKA degradation in KM12 subcutaneous tumors (TPM3-TRKA fusion protein [3]; intraperitoneal or oral administration, eight hours after administration (FIG. 10)): exhibited the activities to induce TPM3-TRKA degradation
TRKA protein levels (wild type TRKA protein): reduced TRKA protein levels in a concentration-dependent manner; also recorded: significant degradation of full-length TRKA

bioavailability ([1]; male, Swiss Albino, mouse, plasma, 2 mg/kg intravenous injection and 20 mg/kg oral gavage, over 12 hours (FIG. 14)): ~16%
SMILES: O=C1CCC(N2C(=O)c3ccc(N4CC(CN5CCN(c6cccc(-c7cnc8ccc(N9CCC[C@@H]9c9cccc(F)c9)nn78)n6)CC5)C4)cc3C2=O)C(=O)N1 (stereo partly drawn) [TR-198, 2-(2,6-dioxopiperidin-3-yl)-5-(3-((4-(6-(6-((R)-2-(3-fluorophenyl)pyrrolidin-1-yl)imidazo[1,2-b]pyridazin-3-yl)pyridin-2-yl)piperazin-1-yl)methyl)azetidin-1-yl)isoindoline-1,3-dione]
growth of KM12 subcutaneous xenograft tumors ([4]; 10-20 mg/kg qd or bid via oral gavage (FIG. 15A)): significant in vivo anti-tumor activity; also recorded: significantly repressed the growth
IC50 (KM12 cells; Table 3): 5.5 nM
body weight ([5]; 10-20 mg/kg qd or bid via oral gavage (FIG. 15B)): without inducing substantial weight losses

SMILES: O=C(Nc1cnn2ccc(N3CCC[C@@H]3c3cc(F)ccc3F)nc12)N1CC[C@H](O)C1 [LOXO-101, larotrectinib]
patients who responded to the therapy (TRK-fusions; phase 2 (Drilon et al., 2018)): 75%
patients remaining progression-free (TRK-fusions; phase 2, at 1 year (Drilon et al., 2018)): 55%
IC50 (KM12 cells; Table 3): 25 nM

time after adding compound at which significant degradation of TPM3-TRKA was detected (TPM3-TRKA fusion protein [2]): 15 min
TPM3-TRKA protein levels, time course (TPM3-TRKA fusion protein [2]): rapidly reduced TPM3-TRKA protein levels
SMILES: O=C1CCC(N2C(=O)c3cccc(NCCOCCC(=O)N4CCN(c5cccc(-c6cnc7ccc(N8CCC[C@@H]8c8cccc(F)c8)nn67)n5)CC4)c3C2=O)C(=O)N1 (stereo partly drawn) [CPD-027, 2-(2,6-Dioxopiperidin-3-yl)-4-((2-(3-(4-(6-(6-((R)-2-(3-fluorophenyl)pyrrolidin-1-yl)imidazo[1,2-b]pyridazin-3-yl)pyridin-2-yl)piperazin-1-yl)-3-oxopropoxy)ethyl)amino)isoindoline-1,3-dione]
TPM3-TRKA protein levels (TPM3-TRKA fusion protein [2]): particularly effective in reducing TPM3-TRKA protein levels
IC50 (KM12 cells; Table 2): 4.9 nM
TPM3-TRKA protein levels in KM12 subcutaneous xenograft tumors (TPM3-TRKA fusion protein [3]): significantly reducing TPM3-TRKA protein levels

SMILES: CN1C(=O)CCC(N2C(=O)c3ccc(NCC(=O)N4CCN(c5cccc(-c6cnc7ccc(N8CCC[C@@H]8c8cccc(F)c8)nn67)n5)CC4)cc3C2=O)C1=O (stereo partly drawn) [TR-123-negative, 5-((2-(4-(6-(6-((R)-2-(3-Fluorophenyl)pyrrolidin-1-yl)imidazo[1,2-b]pyridazin-3-yl)pyridin-2-yl)piperazin-1-yl)-2-oxoethyl)amino)-2-(1-methyl-2,6-dioxopiperidin-3-yl)isoindoline-1,3-dione]
TRKA protein levels (TPM3-TRKA fusion protein [2]): none or less effects on TRKA protein levels
TRKA protein levels (wild type TRKA protein): none or less effects on TRKA protein levels

plasma exposure [1]: good plasma exposure
SMILES: O=C1CCC(N2C(=O)c3ccc(NCC(=O)N4CCN(c5cccc(-c6cnc7ccc(N8CCC[C@@H]8c8cccc(F)c8)nn67)n5)CC4)cc3C2=O)C(=O)N1 (some centres unmarked) [TR123]

time after adding compound at which significant degradation of TPM3-TRKA was detected (TPM3-TRKA fusion protein [2]): 15 min
TPM3-TRKA protein levels, time course (TPM3-TRKA fusion protein [2]): rapidly reduced TPM3-TRKA protein levels
SMILES: O=C(CN1CCN(c2cccc(-c3cnc4ccc(N5CCC[C@@H]5c5cccc(F)c5)nn34)n2)CC1)NCCNc1cccc2c1C(=O)N(C1CCC(=O)NC1=O)C2=O (stereo partly drawn) [CPD-060, N-(2-((2-(2,6-dioxopiperidin-3-yl)-1,3-dioxoisoindolin-4-yl)amino)ethyl)-2-(4-(6-(6-((R)-2-(3-fluorophenyl)pyrrolidin-1-yl)imidazo[1,2-b]pyridazin-3-yl)pyridin-2-yl)piperazin-1-yl)acetamide]
growth of KM12 subcutaneous xenograft tumors ([4]; 25 mg/kg intraperitoneally qd, bid or q2d (FIG. 12A)): significantly repressed the growth
TPM3-TRKA protein levels (TPM3-TRKA fusion protein [2]): particularly effective in reducing TPM3-TRKA protein levels
IC50 (KM12 cells; Table 2): 6 nM
TPM3-TRKA protein levels in KM12 subcutaneous xenograft tumors (TPM3-TRKA fusion protein [3]): significantly reducing TPM3-TRKA protein levels
body weight ([5]; 25 mg/kg intraperitoneally qd, bid or q2d (FIG. 12B)): without inducing substantial weight losses

Reference: patent publication US12065442B2, “Tropomyosin receptor kinase (TRK) degradation compounds and methods of use” (Cullgen (Shanghai), Inc., priority 2018, dated 2024)
